Experimental data published in patent US8461328B2, “Tricyclic heterocyclic compounds, compositions and methods of use thereof” (Genentech, Inc., priority 2010, dated 2013).

Legend:
Type in all cases: biochemical
JAK3 = molecular target: T1, JAK3 (Homo sapiens, UniProt P52333); test: JAK3 inhibition (Table 4); conditions: read-out: JAK3 Ki
T1 construct: made in house; host or cells: SF9 insect cells (baculovirus)

JAK1 = molecular target: T2, JAK1 (Homo sapiens, UniProt P23458); test: JAK1 inhibition (Table 4); conditions: read-out: JAK1 Ki
T2 construct: made in house; host or cells: SF9 insect cells (baculovirus)
T2 sequence (P23458 852-1154): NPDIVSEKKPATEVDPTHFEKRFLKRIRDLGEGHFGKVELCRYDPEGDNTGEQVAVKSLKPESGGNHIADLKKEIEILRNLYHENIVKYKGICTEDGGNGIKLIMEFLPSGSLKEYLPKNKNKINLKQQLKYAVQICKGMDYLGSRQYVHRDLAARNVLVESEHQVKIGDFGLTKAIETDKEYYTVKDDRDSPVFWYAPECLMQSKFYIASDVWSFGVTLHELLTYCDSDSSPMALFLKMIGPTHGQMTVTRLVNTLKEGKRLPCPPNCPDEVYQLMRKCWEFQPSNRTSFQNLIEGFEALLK

TYK2 = molecular target: T3, TYK2 (Homo sapiens, UniProt P29597); test: TYK2 inhibition (Table 4)
T3 construct: made in house; host or cells: SF9 insect cells (baculovirus)
T3 sequence (P29597 873-1187): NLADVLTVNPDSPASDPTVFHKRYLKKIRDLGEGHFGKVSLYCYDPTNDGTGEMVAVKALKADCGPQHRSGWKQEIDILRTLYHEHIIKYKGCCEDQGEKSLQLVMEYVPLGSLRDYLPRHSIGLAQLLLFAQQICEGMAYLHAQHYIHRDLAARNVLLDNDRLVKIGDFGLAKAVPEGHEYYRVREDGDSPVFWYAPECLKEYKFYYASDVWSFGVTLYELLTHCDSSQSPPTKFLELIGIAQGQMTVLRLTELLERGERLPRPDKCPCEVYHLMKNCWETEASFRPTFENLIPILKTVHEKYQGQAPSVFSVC

JAK2 = molecular target: T4, JAK2 (Homo sapiens, UniProt O60674); test: JAK2 inhibition (Table 4); conditions: read-out: JAK2 Ki
T4 construct: made in house; host or cells: SF9 insect cells (baculovirus)
T4 sequence (O60674 812-1132): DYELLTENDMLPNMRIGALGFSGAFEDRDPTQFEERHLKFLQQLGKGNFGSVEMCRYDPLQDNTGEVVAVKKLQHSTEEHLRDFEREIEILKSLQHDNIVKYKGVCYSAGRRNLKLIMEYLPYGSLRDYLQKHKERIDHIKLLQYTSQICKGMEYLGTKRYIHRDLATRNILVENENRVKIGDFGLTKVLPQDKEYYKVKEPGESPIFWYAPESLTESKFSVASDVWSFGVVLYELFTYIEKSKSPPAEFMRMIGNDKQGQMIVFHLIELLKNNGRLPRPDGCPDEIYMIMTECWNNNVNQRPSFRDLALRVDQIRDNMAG

T1 sequence (P52333 783-1124): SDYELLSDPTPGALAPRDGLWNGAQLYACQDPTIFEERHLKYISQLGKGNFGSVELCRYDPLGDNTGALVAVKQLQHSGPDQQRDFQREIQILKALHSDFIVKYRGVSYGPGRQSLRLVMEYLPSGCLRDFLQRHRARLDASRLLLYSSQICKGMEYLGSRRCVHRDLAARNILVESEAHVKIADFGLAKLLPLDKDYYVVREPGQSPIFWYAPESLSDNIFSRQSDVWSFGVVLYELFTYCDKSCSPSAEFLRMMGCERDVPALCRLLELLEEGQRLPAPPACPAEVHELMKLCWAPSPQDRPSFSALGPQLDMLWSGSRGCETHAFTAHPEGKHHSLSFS

Compound	Ki (JAK3)	Ki (JAK1)	Ki (TYK2)	Ki (JAK2)
C[C@@H](O)c1nc2cnc3[nH]ccc3c2n1C1CCN(Cc2nccn2C)CC1 [Example 826, (R)-1-{1-[1-(1-Methyl-1H-imidazol-2-ylmethyl)-piperidin-4-yl]-1,6-dihydro-1,3,5,6-tetraaza-as-indacen-2-yl}-ethanol]	209 nM	47 nM	1160 nM	419 nM
N#Cc1ccc(CN2CCC(n3cnc4cnc5[nH]ccc5c43)CC2)cc1 [Example 48, 4-[4-(6H-1,3,5,6-Tetraaza-as-indacen-1-yl)-piperidin-1-ylmethyl]benzonitrile]	8.57 nM	1.3 nM	30.9 nM	2.67 nM
CC1(n2cnc3cnc4[nH]ccc4c32)CCN(Cc2ccnc(C#N)c2)CC1 [Example 756, 4-[4-Methyl-4-(6H-1,3,5,6-tetraaza-as-indacen-1-yl)-piperidin-1-ylmethyl]-pyridine-2-carbonitrile]	617 nM	36.1 nM	1120 nM	259 nM
c1cc2c(ncc3nc(C4CCC4)n(C4CCNCC4)c32)[nH]1 [Example 326, 2-Cyclobutyl-1-piperidin-4-yl-1,6-dihydro-1,3,5,6-tetraaza-as-indacene]	552 nM	27.6 nM	2630 nM	938 nM
C[C@@H](O)c1nc2cnc3[nH]ccc3c2n1C1CC2CCC1C2 (stereo partly drawn) [Example 943, (R)-1-(1-Bicyclo[2.2.1]hept-2-yl-1,6-dihydro-1,3,5,6-tetraaza-as-indacen-2-yl)-ethanol]	18.7 nM	0.57 nM	2.92 nM	8.22 nM
Cc1nc2cnc3[nH]ccc3c2n1C1CCN(C2COC2)CC1 [Example 363, 2-Methyl-1-(1-oxetan-3-yl-piperidin-4-yl)-1,6-dihydro-1,3,5,6-tetraaza-as-indacene]	123 nM	6.05 nM	54.6 nM	11.2 nM
CS(=O)(=O)CCN1CCC[C@@H](n2cnc3cnc4[nH]ccc4c32)C1 [Example 57, 1-[(R)-1-(2-Methanesulfonyl-ethyl)-piperidin-3-yl]-1,6-dihydro-1,3,5,6-tetraaza-as-indacene]	12 nM	5.21 nM	45.8 nM	9.05 nM
N#CCC(=O)N1CCC[C@@H](n2c(CCO)nc3cnc4[nH]ccc4c32)C1 [Example 17, 3-{(R)-3-[2-(2-Hydroxy-ethyl)-6H-1,2,3,5,6-tetraaza-as-indacen-1-yl]-piperidin-1-yl}-3-oxopropionitrile]	79.1 nM	4.04 nM	29.8 nM	17.1 nM
C[C@@H](O)c1nc2cnc3[nH]ccc3c2n1C1CCNCC1F (stereo partly drawn) [Example 877, (R)-1-[1-(3-Fluoro-piperidin-4-yl)-1,6-dihydro-1,3,5,6-tetraaza-as-indacen-2-yl]-ethanol]	10.6 nM	1.69 nM	10.9 nM	37.8 nM
CC(O)c1nc2cnc3[nH]ccc3c2n1C1CC2CCC1O2 (single isomer, unassigned) [Example 907, (o)-1-[1-(7-Oxa-bicyclo[2.2.1]hept-2-yl)-1,6-dihydro-1,3,5,6-tetraaza-as-indacen-2-yl]-ethanol]	195 nM	24 nM	76.9 nM	142 nM
OC(c1nc2cnc3[nH]ccc3c2n1C1CCCCC1)C1CCOCC1 (racemic) [Example 875, (1-Cyclohexyl-1,6-dihydro-1,3,5,6-tetraaza-as-indacen-2-yl)-(tetrahydro-pyran-4-yl)-methanol]	95.5 nM	35 nM	86.2 nM	290 nM
O[C@@H](c1nc2cnc3[nH]ccc3c2n1C1CCCCC1)C(F)(F)F [Example 878, (S)-1-(1-Cyclohexyl-1,6-dihydro-1,3,5,6-tetraaza-as-indacen-2-yl)-2,2,2-trifluoro-ethanol]	13.6 nM	1.8 nM	11.8 nM	43.7 nM
